Where a SMILES comes first, the peptide text is derived from it. The star is where a group is joined. βNA = c1ccc2cc(N*)ccc2c1; Cbz = O=C(OCc1ccccc1)*; Bz = O=C(c1ccccc1)*
Columns and labels:
[1] = system: Actinobacillus actinomycetemcomitans; assay: Hydrolytic activity of cell suspension on aminopeptidase substrates (Experiment 2); type: cell-based; conditions: four strains, Table 2
In short: (§1)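 Treponema strains were cultured anaerobically in TYGVS for 7 days at 37° C.; the other bacteria grew in brain heart infusion broth for 48 to 72 hours. Each suspension, diluted to A660 1.0, hydrolysed 0.2 mM substrate over 60 minutes at 37° C., and colour developed 15 minutes before reading at 525 nm.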

Actinomyces israelli [2] = assay: as above; type: cell-based; conditions: two strains, Table 2
In short: as §1

B. corporis = assay: as above; type: cell-based; conditions: Table 2
In short: as §1

B. denticola = assay: as above; type: cell-based; conditions: Table 2
In short: as §1

B. gingivalis [3] = assay: as above; type: cell-based; conditions: five strains, Table 2
In short: as §1

B. intermedius = assay: as above; type: cell-based; conditions: three strains, Table 2
In short: as §1

B. melaninogenicus = assay: as above; type: cell-based; conditions: two strains, Table 2
In short: as §1

Fusobacterium nucleatum [4] = assay: as above; type: cell-based; conditions: three strains, Table 2
In short: as §1

Treponema denticola [5] = assay: as above; type: cell-based; conditions: four strains, Table 2
In short: as §1

[6] = system: Actinobacillus actinomycetemcomitans; assay: Hydrolytic activity of cell suspension, substrates alone or in combination (Experiment 3); type: cell-based; conditions: four strains, Table 3
Description: (§2) The strains of Treponema were anaerobically cultivated using TYGVS media at 37° C. for 7 days, while other bacterial strains were cultivated using brain heart infusion broth at 37° C. for 48 to 72 hours. Each culture was diluted to obtain a bacterial cell suspension, the absorption at 660 nm of which was 1.0.
(§3) Substrate compounds for aminopeptidase enzyme having various color developing groups derived from β-naphthylamine were dissolved in 0.1M Tris-HCl buffer (pH 7.0) at the concentration of 0.2 mM to obtain substrate solutions.
(§4) To the substrate solution (1.5 ml) was added the above cell suspension (0.3 ml) and reacted at 37° C. for 60 minutes. After completion of the reaction, a coloring reagent [prepared by dissolving diazonium salt of Garnet GBC in 1M acetate buffer (containing 10% Tween 20, pH: 4.2) at the concentration of 0.5 mg/ml] was added and, after 15 minutes, the absorption at 525 nm was determined with a spectrophotometer.
(§5) On the basis of the average amount of released β-naphthylamine in each strain, the hydrolytic activity was expressed as follows: […]
(§6) According to the same manner as described in Experiment 1, periodontopathic bacteria specific aminopeptidase activity was tested by using four strains of Treponema denticola, five strains of B. gingivalis, four strains of Actinobacillus actinomycetemcomitans, two strains of Actinomyces israelli and three strains of Fusobacterium nucleatum. Abbreviations in Table 3 are the same as those in Tables 1 and 2. Hydrolytic activity "+++" means "40≤release amount<80 nmol/ml" and "++++" means "release amount≥80 nmol/ml".

Actinomyces israelli [7] = assay: as above; type: cell-based; conditions: two strains, Table 3
Description: as §2, §3, §4, §5, §6

B. gingivalis [8] = assay: as above; type: cell-based; conditions: five strains, Table 3
Description: as §2, §3, §4, §5, §6

Fusobacterium nucleatum [9] = assay: as above; type: cell-based; conditions: three strains, Table 3
Description: as §2, §3, §4, §5, §6

Treponema denticola [10] = assay: as above; type: cell-based; conditions: four strains, Table 3
Description: as §2, §3, §4, §5, §6

[11] = system: periodontopathic bacteria specific aminopeptidase activity; assay: Hydrolytic activity of gingival crevicular fluid specimens, OD525 (Experiment 6); type: biochemical
Description: as §3, §4
Specimens of gingival crevicular fluid were collected with paper points from five subjects who were considered to be healthy from their clinical state, six subjects with gingivitis and six subjects with periodontitis. Each specimen was dispersed in Ringer's solution (1.5 ml), and the relative amount of spirochete to total bacteria: [formula] was determined with a phase contrast microscope. Further, the Ringer's solution (0.3 ml) was tested for hydrolytic activity using the substrate solution prepared in the same manner as described in Experiment 1. As substrates, there were used compounds of the formula [1], i.e., N-benzoylvalyl-glycyl-arginine-β-naphthylamide (BzVGR) and N-carbobenzoxy-valyl-glycyl-arginine-β-naphthylamide (CxVGR) were used.
According to the same manner as described in Experiment 4, hydrolytic activity was tested by using the compounds of the formulas and [2], i.e., glycyl-proline-βnaphthylamide (GP), N-benzoyl-arginyl-glycyl-phenylalanylproline-β-naphthylamide (BzRGFP), N-carbobenzoxy-valylglycyl-arginine-β-naphthylamide (CxVGR) and N-benzoylglycyl-arginine-β-naphthylamide (BzGR) alone or in combination. Hydrolytic activity was determined by measuring absorption at 525 nm (OD525) and expressed as follows.

[12] = system: periodontopathic bacteria specific aminopeptidase activity; assay: Hydrolytic activity of saliva supernatant, substrates alone or in combination (Experiment 9); type: biochemical; conditions: 37° C. for 4 hours, Table 9
Description: A saliva mixture was collected from a group consisting of ten healthy subjects and centrifuged to obtain a supernatant. Likewise, centrifuged supernatants were obtained from a group of ten subjects with adult periodontitis and a group of four localized juvenile periodontitis. The supernatant was used as a specimen and its hydrolytic activity was determined according to the same manner as described in Experiment 4 except that the reaction was carried out at 37° C. for 4 hours. As the substrates, there were used N-carbobenzoxy-valyl-glycyl-arginine-p-nitrophenol (CxVGR-pNP), N-carbobenzoxy-valyl-glycylarginine-4-methoxy-2-naphthylamide (CxVGR-4NA) and N-carbobenzoxy-valyl-glycyl-arginine-β-naphthylamide (CxVGR-βNA). Color was developed by using lN sodium hydroxide for CxVGR-pNP and Fast Blue BB for CxVGR-4NA and CxVGR-βNA.
According to the same manner as described in Experiment 7, hydrolytic activity was tested by using N-carbobenzoxy-valyl-glycyl-arginine-β-naphthylamide (CxVGR-βNA), N-benzoyl-arginyl-glycyl-phenylalanyl-proline-β-naphthylamide (BzRGFP-βNA), N-carbobenzoxy-valyl-glycylarginine-p-nitrophenol (CxVGR-pNP) and N-benzoyl-arginylglycyl-phenylalanyl-proline-p-nitrophenol (BzRGFP-pNP) alone or in combination as the substrates.

[13] = Gingivitis subject 1 (spirochete 7.3 %)
[14] = Gingivitis subject 2 (spirochete 16.7 %)
[15] = Gingivitis subject 3 (spirochete 20.5 %)
[16] = Gingivitis subject 4 (spirochete 6.8 %)
[17] = Gingivitis subject 5 (spirochete 7.3 %)
[18] = Gingivitis subject 6 (spirochete 14.4 %)
[19] = Healthy subject 1 (spirochete 0.1 %)
[20] = Healthy subject 3 (spirochete 1.1 %)
[21] = Healthy subject 4 (spirochete 0.6 %)
[22] = Healthy subject 5 (spirochete 1.3 %)
[23] = Periodontitis subject 1 (spirochete 45.2 %)
[24] = Periodontitis subject 2 (spirochete 30.3 %)
[25] = Periodontitis subject 3 (spirochete 34.6 %)
[26] = Periodontitis subject 4 (spirochete 21.2 %)
[27] = Periodontitis subject 5 (spirochete 40.3 %)
[28] = Periodontitis subject 6 (spirochete 35.1 %)

Row | SMILES | hydrolytic activity (average amount of released β-naphthylamine) [1] | hydrolytic activity (average amount of released β-naphthylamine) (Actinomyces israelli [2]) | hydrolytic activity (average amount of released β-naphthylamine) (B. corporis) | hydrolytic activity (average amount of released β-naphthylamine) (B. denticola) | hydrolytic activity (average amount of released β-naphthylamine) (B. gingivalis [3]) | hydrolytic activity (average amount of released β-naphthylamine) (B. intermedius) | hydrolytic activity (average amount of released β-naphthylamine) (B. melaninogenicus) | hydrolytic activity (average amount of released β-naphthylamine) (Fusobacterium nucleatum [4]) | hydrolytic activity (average amount of released β-naphthylamine) (Treponema denticola [5]) | hydrolytic activity (release amount) [6] | hydrolytic activity (release amount) (Actinomyces israelli [7]) | hydrolytic activity (release amount) (B. gingivalis [8]) | hydrolytic activity (release amount) (Fusobacterium nucleatum [9]) | hydrolytic activity (release amount) (Treponema denticola [10]) | hydrolytic activity, absorption at 525 nm (OD525) [11, 13] | hydrolytic activity, absorption at 525 nm (OD525) [11, 14] | hydrolytic activity, absorption at 525 nm (OD525) [11, 15] | hydrolytic activity, absorption at 525 nm (OD525) [11, 16] | hydrolytic activity, absorption at 525 nm (OD525) [11, 17] | hydrolytic activity, absorption at 525 nm (OD525) [11, 18] | other results
1 | N=C(N)NCCC[C@H](NC(=O)c1ccccc1)C(=O)NCC(=O)N[C@@H](Cc1ccccc1)C(=O)N1CCC[C@H]1C(=O)Nc1ccc2ccccc2c1 [BzRGFP, N-benzoyl-arginyl-glycyl-phenylalanyl-proline-β-naphthylamide] (Bz-RGFP-βNA) | - (release amount<5 nmol/ml) | - (release amount<5 nmol/ml) | ++ (20 ≤release amount<40 nmol/ml) | +++ (release amount≥40 nmol/ml) | ++ (20 ≤release amount<40 nmol/ml) | +++ (release amount≥40 nmol/ml) | +++ (release amount≥40 nmol/ml) | - (release amount<5 nmol/ml) | ++ (20 ≤release amount<40 nmol/ml) | - (release amount<5 nmol/ml) | - (release amount<5 nmol/ml) | ++ (20 ≤release amount<40 nmol/ml) | - (release amount<5 nmol/ml) | ++ (20 ≤release amount<40 nmol/ml) | + (0.1≤OD525 <0.2) | + (0.1≤OD525 <0.2) | ++ (0.2≤OD525 <0.4) | - (OD525 <0.1) | - (OD525 <0.1) | + (0.1≤OD525 <0.2) | hydrolytic activity, absorption at 525 nm (OD525) [11, 19]: - (OD525 <0.1); hydrolytic activity, absorption at 525 nm (OD525) ([11]; Healthy subject 2 (spirochete 2.5 %)): + (0.1≤OD525 <0.2); hydrolytic activity, absorption at 525 nm (OD525) [11, 20]: - (OD525 <0.1); hydrolytic activity, absorption at 525 nm (OD525) [11, 21]: - (OD525 <0.1); hydrolytic activity, absorption at 525 nm (OD525) [11, 22]: - (OD525 <0.1); hydrolytic activity, absorption at 525 nm (OD525) [11, 23]: +++ (0.4≤OD525 <0.8); hydrolytic activity, absorption at 525 nm (OD525) [11, 24]: +++ (0.4≤OD525 <0.8); hydrolytic activity, absorption at 525 nm (OD525) [11, 25]: +++ (0.4≤OD525 <0.8); hydrolytic activity, absorption at 525 nm (OD525) [11, 26]: +++ (0.4≤OD525 <0.8); hydrolytic activity, absorption at 525 nm (OD525) [11, 27]: +++ (0.4≤OD525 <0.8); hydrolytic activity, absorption at 525 nm (OD525) [11, 28]: +++ (0.4≤OD525 <0.8); hydrolytic activity ([12]; Adult Periodontitis subjects): 27.8 ± 7.4 nmol/mL; hydrolytic activity ([12]; Healthy subjects): 13.2 ± 5.4 nmol/mL; hydrolytic activity ([12]; Localized juvenile periodontitis subjects): 22.6 ± 5.3 nmol/mL
2 | NCCCC[C@H](NC(=O)OCc1ccccc1)C(=O)N1CCC[C@H]1C(=O)Nc1ccc2ccccc2c1 [CxKP, N-carbobenzoxy-lysyl-proline-β-naphthylamide] (Cbz-Lys-Pro-βNA) | - (release amount<5 nmol/ml) | - (release amount<5 nmol/ml) | ++ (20 ≤release amount<40 nmol/ml) | ++ (20 ≤release amount<40 nmol/ml) | ++ (20 ≤release amount<40 nmol/ml) | ++ (20 ≤release amount<40 nmol/ml) | ++ (20 ≤release amount<40 nmol/ml) | - (release amount<5 nmol/ml) | + (10 ≤release amount<20 nmol/ml) | - (release amount<5 nmol/ml) | - (release amount<5 nmol/ml) | ++ (20 ≤release amount<40 nmol/ml) | - (release amount<5 nmol/ml) | + (10 ≤release amount<20 nmol/ml) |  |  |  |  |  |  | 
3 | NCC(=O)N1CCC[C@H]1C(=O)Nc1ccc2ccccc2c1 [GP, glycyl-proline-β-naphthylamide] (H-Gly-Pro-βNA) | - (release amount<5 nmol/ml) | - (release amount<5 nmol/ml) | ++ (20 ≤release amount<40 nmol/ml) | - (release amount<5 nmol/ml) | +++ (release amount≥40 nmol/ml) | + (10 ≤release amount<20 nmol/ml) | ++ (20 ≤release amount<40 nmol/ml) | - (release amount<5 nmol/ml) | ++ (20 ≤release amount<40 nmol/ml) | - (release amount<5 nmol/ml) | - (release amount<5 nmol/ml) | +++ (40≤release amount<80 nmol/ml) | - (release amount<5 nmol/ml) | ++ (20 ≤release amount<40 nmol/ml) | + (0.1≤OD525 <0.2) | + (0.1≤OD525 <0.2) | ++ (0.2≤OD525 <0.4) | - (OD525 <0.1) | - (OD525 <0.1) | + (0.1≤OD525 <0.2) | hydrolytic activity, absorption at 525 nm (OD525) [11, 19]: - (OD525 <0.1); hydrolytic activity, absorption at 525 nm (OD525) [11, 20]: - (OD525 <0.1); hydrolytic activity, absorption at 525 nm (OD525) [11, 21]: - (OD525 <0.1); hydrolytic activity, absorption at 525 nm (OD525) [11, 22]: - (OD525 <0.1); hydrolytic activity, absorption at 525 nm (OD525) [11, 23]: +++ (0.4≤OD525 <0.8); hydrolytic activity, absorption at 525 nm (OD525) [11, 24]: +++ (0.4≤OD525 <0.8); hydrolytic activity, absorption at 525 nm (OD525) [11, 25]: +++ (0.4≤OD525 <0.8); hydrolytic activity, absorption at 525 nm (OD525) [11, 26]: ++ (0.2≤OD525 <0.4); hydrolytic activity, absorption at 525 nm (OD525) [11, 27]: +++ (0.4≤OD525 <0.8); hydrolytic activity, absorption at 525 nm (OD525) [11, 28]: +++ (0.4≤OD525 <0.8)

Reference: patent publication US5137811A, “Method for diagnosing periodontal diseases with a substrate specific for aminopeptidase activity of periodontopathic bacteria” (Sunstar Kabushiki Kaisha, priority 1986, dated 1992)
